# From ChEMBL document CHEMBL1201862, “PubChem BioAssay data set” (2004)
#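 Dose response: 5 concentrations. Exposure: 48 h. Format: 96-well plates. Endpoint: linear interpolation; highest concentration if not reached. GI50 marks 50% less growth.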 Active and inactive are the calls of the source. Cut-off read from the data, not from the text of the source: active = GI50 up to about 1.1 µM and inactive = higher.
# Legend:
# Test in all cases: NCI anticancer screen, dose series, 48 h
# OVCAR-4 = tested on: OVCAR-4
# OVCAR-8 = tested on: OVCAR-8
# MOLT-4 = tested on: MOLT-4
# COLO 205 = tested on: COLO 205
# SR = tested on: SR
# LOX IMVI = tested on: LOX IMVI
# DU-145 = tested on: DU-145
# MDA-MB-435 = tested on: MDA-MB-435
# NCI/ADR-RES = tested on: NCI/ADR-RES
# UACC-257 = tested on: UACC-257
# HCT-15 = tested on: HCT-15
# HL-60 = tested on: HL-60
# NCI-H226 = tested on: NCI-H226
# OVCAR-5 = tested on: OVCAR-5
# SK-MEL-5 = tested on: SK-MEL-5
# SF-539 = tested on: SF-539
# 786-0 = tested on: 786-0
# SW-620 = tested on: SW-620
# CCRF-CEM = tested on: CCRF-CEM
Compound,GI50 (OVCAR-4),GI50 (OVCAR-8),GI50 (MOLT-4),GI50 (COLO 205),GI50 (SR),GI50 (LOX IMVI),GI50 (DU-145),GI50 (MDA-MB-435),GI50 (NCI/ADR-RES),GI50 (UACC-257),GI50 (HCT-15),GI50 (HL-60),GI50 (NCI-H226),GI50 (OVCAR-5),GI50 (SK-MEL-5),GI50 (SF-539),GI50 (786-0),GI50 (SW-620),GI50 (CCRF-CEM)
O=C1Nc2ccccc2/C1=c1\[nH]c(=O)/c(=C\c2ccc(OCc3ccccc3)cn2)[nH]c1=O,72.4 µM (inactive),78.7 µM (inactive),52.8 µM (inactive),> 100 µM (inactive),20.1 µM (inactive),> 100 µM (inactive),86.5 µM (inactive),44.1 µM (inactive),91.6 µM (inactive),> 100 µM (inactive),41.1 µM,49.4 µM (inactive),> 100 µM (inactive),> 100 µM (inactive),64.6 µM (inactive),18.2 µM (inactive),18.8 µM (inactive),> 100 µM (inactive),39.5 µM (inactive)
CC(=N\N=C\c1ccccn1)/C(C)=N/N=C(C)/C(C)=N/N=C/c1ccccn1,> 100 µM (inactive),> 100 µM (inactive),–,> 100 µM (inactive),> 100 µM (inactive),> 100 µM (inactive),> 100 µM (inactive),> 100 µM (inactive),> 100 µM (inactive),> 100 µM (inactive),71.3 µM,> 100 µM (inactive),> 100 µM (inactive),> 100 µM (inactive),> 100 µM (inactive),> 100 µM (inactive),> 100 µM (inactive),> 100 µM (inactive),> 100 µM (inactive)
O=C(NCP(=O)(c1ccccc1)c1ccccc1)OCc1ccccc1,43.5 µM (inactive),> 100 µM (inactive),> 100 µM (inactive),> 100 µM (inactive),> 100 µM (inactive),> 100 µM (inactive),> 100 µM (inactive),> 100 µM (inactive),73.5 µM (inactive),–,> 100 µM,> 100 µM (inactive),> 100 µM (inactive),> 100 µM (inactive),> 100 µM (inactive),> 100 µM (inactive),37.2 µM (inactive),> 100 µM (inactive),> 100 µM (inactive)
NN=C(CC(O)(C(F)(F)Cl)C(F)(F)Cl)CC(O)(C(F)(F)Cl)C(F)(F)Cl,> 10 µM (inactive),> 10 µM (inactive),> 10 µM (inactive),> 10 µM (inactive),> 10 µM (inactive),> 10 µM (inactive),> 10 µM (inactive),> 10 µM (inactive),> 10 µM (inactive),> 10 µM (inactive),> 10 µM,> 10 µM (inactive),> 10 µM (inactive),> 10 µM (inactive),> 10 µM (inactive),> 10 µM (inactive),> 10 µM (inactive),> 10 µM (inactive),> 10 µM (inactive)
COC(=O)c1nc2c(C)c(O)c(O)c([C@H](C)CCC=C(C)C)c2o1,30.1 µM (inactive),38.5 µM (inactive),24.9 µM (inactive),16.2 µM (inactive),7 µM (inactive),43.2 µM (inactive),65.5 µM (inactive),26.8 µM (inactive),25.2 µM (inactive),28.4 µM (inactive),14 µM,16.7 µM (inactive),17.9 µM (inactive),58.6 µM (inactive),13 µM (inactive),20 µM (inactive),18.6 µM (inactive),39.5 µM (inactive),2.64 µM (inactive)
NCC(=O)Nc1ccc(S(=O)(=O)O)c2cc(S(=O)(=O)O)cc(S(=O)(=O)O)c12,> 100 µM (inactive),> 100 µM (inactive),> 100 µM (inactive),> 100 µM (inactive),> 100 µM (inactive),> 100 µM (inactive),> 100 µM (inactive),> 100 µM (inactive),> 100 µM (inactive),> 100 µM (inactive),> 100 µM,> 100 µM (inactive),> 100 µM (inactive),> 100 µM (inactive),> 100 µM (inactive),> 100 µM (inactive),> 100 µM (inactive),> 100 µM (inactive),> 100 µM (inactive)
CC(C)=C1C(=O)C[C@]2(C)C[C@H]3O[C@]3(C)CC[C@@H]3O[C@@]3(C)CC[C@@H]12,> 50 µM (inactive),> 50 µM (inactive),> 50 µM (inactive),> 50 µM (inactive),34.5 µM (inactive),17.5 µM (inactive),> 50 µM (inactive),> 50 µM (inactive),> 50 µM (inactive),> 50 µM (inactive),> 50 µM,> 50 µM (inactive),> 50 µM (inactive),> 50 µM (inactive),–,> 50 µM (inactive),> 50 µM (inactive),> 50 µM (inactive),> 50 µM (inactive)
CC1(C)C(=O)/C(=C/c2ccccc2)C(C)(C)C1(C)C,> 75.3 µM (inactive),> 100 µM (inactive),56.2 µM (inactive),> 100 µM (inactive),37 µM (inactive),35.4 µM (inactive),40.7 µM (inactive),29.4 µM (inactive),> 90.6 µM (inactive),> 100 µM (inactive),54.1 µM,18.9 µM (inactive),> 100 µM (inactive),> 100 µM (inactive),55 µM (inactive),> 100 µM (inactive),> 81.8 µM (inactive),60.3 µM (inactive),28.4 µM (inactive)
O=c1oc2ccc([N+](=O)[O-])cc2cc1Br,> 100 µM (inactive),> 100 µM (inactive),> 100 µM (inactive),> 100 µM (inactive),47.3 µM (inactive),61.2 µM (inactive),> 100 µM (inactive),> 100 µM (inactive),> 100 µM (inactive),> 100 µM (inactive),–,39 µM (inactive),> 100 µM (inactive),> 100 µM (inactive),> 100 µM (inactive),> 100 µM (inactive),> 100 µM (inactive),> 100 µM (inactive),57.5 µM (inactive)
Cc1cc(C(=O)CBr)c(CN2C(=O)c3ccccc3C2=O)c(=O)n1C,14.7 µM (inactive),18.1 µM (inactive),1.93 µM (inactive),8.43 µM (inactive),1.64 µM (inactive),12.9 µM (inactive),13.7 µM (inactive),20.3 µM (inactive),47.8 µM (inactive),17 µM (inactive),12.6 µM,5.09 µM (inactive),49.5 µM (inactive),24.9 µM (inactive),–,16.2 µM (inactive),21.8 µM (inactive),3.78 µM (inactive),2.92 µM (inactive)
Cc1ccc(O)c(-c2cc(-c3ccccc3)nc(/N=C\c3ccccc3)n2)c1,31.4 µM (inactive),20.4 µM (inactive),18.2 µM (inactive),–,59.4 µM (inactive),21.8 µM (inactive),> 100 µM (inactive),> 100 µM (inactive),21.5 µM (inactive),> 100 µM (inactive),11.6 µM,35.2 µM (inactive),30.3 µM (inactive),> 100 µM (inactive),31.5 µM (inactive),29.6 µM (inactive),32.5 µM (inactive),> 100 µM (inactive),18.6 µM (inactive)
CC(C)OC(=O)NCCn1cc(-c2ccccc2)nn1,> 100 µM (inactive),> 100 µM (inactive),> 100 µM (inactive),> 100 µM (inactive),> 100 µM (inactive),> 100 µM (inactive),> 100 µM (inactive),> 100 µM (inactive),> 100 µM (inactive),> 100 µM (inactive),> 100 µM,> 100 µM (inactive),> 100 µM (inactive),> 100 µM (inactive),> 100 µM (inactive),> 100 µM (inactive),> 100 µM (inactive),–,> 100 µM (inactive)
C=CCOCn1cnc2c(=O)[nH]c(N)nc21,> 100 µM (inactive),> 100 µM (inactive),> 100 µM (inactive),> 100 µM (inactive),> 100 µM (inactive),> 100 µM (inactive),> 100 µM (inactive),> 100 µM (inactive),> 100 µM (inactive),–,> 100 µM,> 100 µM (inactive),> 100 µM (inactive),> 100 µM (inactive),> 100 µM (inactive),> 100 µM (inactive),> 100 µM (inactive),> 100 µM (inactive),> 100 µM (inactive)
COC(=O)CN(CC1O[C@@H]2OC(C)(C)O[C@@H]2C1N=[N+]=[N-])C(=O)OCc1ccccc1 (stereo not given in full),> 100 µM (inactive),> 100 µM (inactive),51.4 µM (inactive),> 100 µM (inactive),> 100 µM (inactive),> 100 µM (inactive),> 100 µM (inactive),> 100 µM (inactive),30.9 µM (inactive),> 100 µM (inactive),> 100 µM,69.3 µM (inactive),> 100 µM (inactive),> 100 µM (inactive),> 100 µM (inactive),> 100 µM (inactive),> 100 µM (inactive),> 100 µM (inactive),–
O=S1(=O)c2ccccc2C(Nc2ccccc2)N1c1ccccc1 (stereo not given),67.6 µM (inactive),> 100 µM (inactive),50.4 µM (inactive),–,83.8 µM (inactive),> 100 µM (inactive),> 100 µM (inactive),45.1 µM (inactive),45 µM (inactive),> 100 µM (inactive),48 µM,85.7 µM (inactive),> 100 µM (inactive),> 100 µM (inactive),> 100 µM (inactive),> 100 µM (inactive),> 100 µM (inactive),> 100 µM (inactive),63.4 µM (inactive)
